# According to patent US10076503B2 (priority 2014, dated 2018):
# Assays:
# [1] = system: adults with ADHD; type: in vivo, human
# Experimental: The study consisted of three periods including Screening, Treatment, and Washout/Follow-up, as described below. Efficacy was evaluated using the ADHD Rating Scale Version IV (ADHD RS-IV) with adult prompts. Effects on cognition were evaluated using the clinical data repository system. Safety and tolerability were monitored throughout the study by collection of physical examinations, 12-lead electrocardiograms (ECG), vital signs, adverse events (AEs), hematology, blood chemistry, urinalysis, Insomnia Severity Index (ISI), and Columbia—Suicide Severity Rating Scale (C-SSRS).
# Subjects self-administered the study drug at home on Days 1 through 28, at approximately the same time each night. After Day 1 subjects returned to the clinic on Days 8, 15, 22, and 29. Beginning at Day 1 and at every visit during the treatment period, the ADHD RS-IV, Wender-Reimherr Adult Attention Deficit Disorder Scale (WRAADDS), and clinical global impression—severity (CGI-S) were completed. The clinical data repository system was administered at Baseline, and Days 15 and 29.
# At Days 36 and 43, subjects returned to the clinic and the ADHD RS-IV, WRAADDS, and CGI-S were completed. The clinical data repository system was completed on Day 43.
# [2] = system: healthy recreational stimulant users; assay: single-dose crossover abuse potential study, placebo- and methylphenidate-controlled; type: in vivo, human
# Description: A single-dose, randomized, double-blind, double-dummy, placebo- and active-controlled crossover study with 6 Treatment Visits per subject was undertaken. […] Subjects participated in a medical screening visit (Visit 1), one 4-day inpatient qualification phase (Visit 2), a treatment phase (Visits 3 to 8) consisting of six 5-day inpatient treatment visits, and a safety follow-up visit (Visit 9). Within 21 days of the screening visit, subjects were enrolled and attended a qualification phase in which they received either 60 mg methylphenidate or matching placebo in a randomized double-blind crossover manner. Dosing times were separated by approximately 24 hours to ensure that subjects could discriminate and show positive effects of the positive control.
# Healthy female and male subjects aged 18 to 55 years (inclusive), who were recreational central nervous system (CNS) stimulant users with cocaine experience and who had passed the methylphenidate qualification phase, were randomized into the treatment.
# Drug administration occurred on Day 1 of each treatment visit followed by pharmacodynamic (PD), pharmacokinetic (PK), and safety assessments conducted for up to 72 hours post-dose. […] Subjects were randomized to one of 6 treatment sequences according to a 6×6 William square design. The capsules received at each treatment visit (Visits 3 to 8) were identical. Serial pharmacodynamic and pharmacokinetic evaluations were taken at each treatment visit. Pharmacokinetic analysis was performed for dasotraline. Safety monitoring included regular assessments of vital signs, clinical laboratory tests, and adverse events (AEs), as well as continuous telemetry monitoring for at least 12 hours post-dose. Treatment visits were separated by a washout interval of at least 21 days (from the day of dosing). Subjects returned for the safety follow-up visit within approximately 14 days following the end of the last treatment visit.
# [3] = clinical; conditions: human, in vivo
# Experimental: Upon oral administration, methylphenidate is rapidly and completely absorbed from the gastrointestinal tract. Peak concentrations occur 1 to 2 hours after dose administration. […] When methylphenidate and cocaine are administered intravenously, their pharmacokinetics are quite similar—the percentage of each drug taken up by the brain and their rates of uptake are parallel, although the clearance from the brain of cocaine is faster than that of methylphenidate. The receptor-binding affinities for cocaine and methylphenidate are similar at the dopamine transporter in the basal ganglia and the striatum. […] Thus it appears that abuse may be related to a rapid surge in dopamine levels in the striatum. […] The consequence of the slow increase in dopamine is the absence of a “high”, and the consequence of the long T1/2 is that serum concentration gradually increases to a steady state.
# [4] = target: T1, DAT sites (Homo sapiens, UniProt Q01959); assay: DAT site occupancy versus serum concentration (other studies, not shown); conditions: in vivo
# T1 construct: from tissue; host or cells: brain in vivo (my inference)
# T1 sequence (Q01959 whole entry): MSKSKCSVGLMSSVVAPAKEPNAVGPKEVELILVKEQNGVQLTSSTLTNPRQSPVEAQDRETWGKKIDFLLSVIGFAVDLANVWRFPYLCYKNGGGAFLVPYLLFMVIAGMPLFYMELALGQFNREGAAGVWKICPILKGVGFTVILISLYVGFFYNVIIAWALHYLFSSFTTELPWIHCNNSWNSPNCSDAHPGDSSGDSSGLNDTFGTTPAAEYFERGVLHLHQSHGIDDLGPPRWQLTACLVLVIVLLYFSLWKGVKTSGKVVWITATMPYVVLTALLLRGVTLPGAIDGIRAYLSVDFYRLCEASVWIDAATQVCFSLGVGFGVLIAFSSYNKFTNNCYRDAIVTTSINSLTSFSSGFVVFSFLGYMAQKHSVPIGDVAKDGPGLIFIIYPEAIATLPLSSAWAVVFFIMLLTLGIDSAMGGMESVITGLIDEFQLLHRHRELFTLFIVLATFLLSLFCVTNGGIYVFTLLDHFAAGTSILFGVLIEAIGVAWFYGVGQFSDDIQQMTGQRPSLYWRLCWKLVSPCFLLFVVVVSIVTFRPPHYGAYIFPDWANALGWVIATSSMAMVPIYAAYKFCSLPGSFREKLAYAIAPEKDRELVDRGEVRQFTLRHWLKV
# [5] = cited from earlier work
# [6] = methylphenidate 40 mg and 80 mg, single dose
structure (smiles),measurement,setting,value
"N[C@@H]1CC[C@@H](c2ccc(Cl)c(Cl)c2)c2ccccc21 [dasotraline, (1R,4S)-4-(3,4-Dichlorophenyl)-1,2,3,4-tetrahydronaphthalen-1-amine]",anxiety leading to discontinuation,[1]; 4 mg once daily,2.6%
same,"computerized cognitive assessment battery: attention, working memory, episodic memory",[1]; 4 mg once daily,no significant main effects
same,insomnia leading to discontinuation,[1]; 4 mg once daily,2.6%
same,Wender-Reimherr ADD total score,[1]; 4 mg once daily versus placebo,did not improve enough to achieve statistical significance
same,"treatment-emergent adverse events (TEAEs), percentage",[1]; 4 mg once daily versus placebo,higher than the percentage of TEAEs in the placebo group
same,Wender-Reimherr subscore for the attention difficulties component,"[1]; 4 mg once daily versus placebo, week 4",statistically significant improvement
same,serum concentration as a function of time,"[1]; 4 mg once daily, 4 weeks",began to plateau by week four
same,"ADHD RS-IV total score, LS mean change from baseline versus placebo","[1]; 4 mg once daily, to week four, p<0.05, FIG. 1",statistically different at weeks three and four
same,"CGI-S score, LS mean change from baseline versus placebo","[1]; 4 mg once daily, to week four, p<0.05, FIG. 2",statistically different at weeks three and four
same,incidence of adverse events rated as severe,"[1]; 4 mg once daily, placebo group 2.7%",6%
same,mean concentrations at steady state,[1]; 4 mg/d,6 ng/mL
same,circulating DHPG levels,"[1]; 4 mg/d, indicative of central inhibition of norepinephrine transporters",decreased circulating DHPG levels
same,time of administration to statistically significant improvement in ADHD,[1]; oral dosage form containing 4 mg,about two to three
same,differences from placebo on pharmacodynamic endpoints,[2]; 16 mg single dose,very few statistically significant differences from placebo
same,effects on most pharmacodynamic endpoints versus placebo,"[2]; dasotraline 8, 16 and 36 mg, single dose",not significantly different from those of placebo
same,Cmax,[3]; 4 mg,~1.5 ng/mL
same,Tmax,[3]; 4 mg,> 6 h
same,Tmax,[3]; po,10 to 12 h
same,half-life,[3]; po,47 to 77 h
same,serum concentration at which 50% DAT site occupancy was achieved,[4],5 to 6 ng/mL
COC(=O)C(c1ccccc1)C1CCCCN1 (stereo not shown) [methylphenidate],pharmacokinetic half-life,[5]; in vivo,approximately 2 hours
same,time of peak concentrations after dose administration,[5]; oral administration,1 to 2 h
same,Drug Similarity Visual Analog Scale,[2]; [6],strongly identified as a stimulant
same,"majority of pharmacodynamic endpoints incl. Drug Liking Visual Analog Scale, versus placebo",[2]; [6],significant differences compared to placebo
same,secondary stimulant measures,[2]; [6],strong stimulant effects
